Experimental findings from PMC5218480 (PLoS ONE, 2017) are described below.

This assay concerns MV-4-11 cells. The assay can be described thus: Gene expression microarray analysis (Affymetrix PrimeView) and GSEA. To be noted: ProbeSet 11731093_s_at; LIST B. It counts as cell-based, human. Details: RFU PODN (11730768_x_at) / Fold change /veh PODN (11730768_x_at) / RFU LINC00158 (11744669_a_at) / Fold change /veh LINC00158 (11744669_a_at) / RFU DUSP10 (11751237_a_at) / Fold change /veh DUSP10 (11751237_a_at) / RFU ID3 (11757404_x_at) / Fold change /veh ID3 (11757404_x_at) / RFU PLEKHG5 (11737974_s_at) / Fold change /veh PLEKHG5 (11737974_s_at) / RFU LRRC4B (11730491_at) / Fold change /veh LRRC4B (11730491_at) / RFU GIMAP4 (11747438_a_at) / Fold change /veh GIMAP4 (11747438_a_at) / RFU KRT8 (11758183_x_at) / Fold change /veh KRT8 (11758183_x_at) / RFU CNN1 (11734310_a_at) / Fold change /veh CNN1 (11734310_a_at) / RFU VPS37D (11726825_at) / Fold change /veh VPS37D (11726825_at) / RFU C10orf10 (11716522_x_at) / Fold change /veh C10orf10 (11716522_x_at) / RFU KIR2DL2 /// KIR2DL4 /// KIR2DL5A /// KIR2DL5B /// KIR2DS1 /// KIR2DS2 /// KIR2DS3 /// KIR2DS4 /// KIR3DL3 /// KIR3DL3 /// KIR3DS1 (11738374_at) / Fold change /veh KIR2DL2 /// KIR2DL4 /// KIR2DL5A /// KIR2DL5B /// KIR2DS1 /// KIR2DS2 /// KIR2DS3 /// KIR2DS4 /// KIR3DL3 /// KIR3DL3 /// KIR3DS1 (11738374_at) / RFU C1QL1 (11718748_at) / Fold change /veh C1QL1 (11718748_at) / RFU TMPRSS4 (11747572_a_at) / Fold change /veh TMPRSS4 (11747572_a_at) / RFU HAMP (11756126_x_at) / Fold change /veh HAMP (11756126_x_at) / RFU RNFT2 (11725882_a_at) / Fold change /veh RNFT2 (11725882_a_at) / RFU NR4A2 (11747474_a_at) / Fold change /veh NR4A2 (11747474_a_at) / RFU ABCC12 (11746883_a_at) / Fold change /veh ABCC12 (11746883_a_at) / RFU TMEM136 (11760407_x_at) / Fold change /veh TMEM136 (11760407_x_at) / RFU CLDN22 /// WWC2 (11732394_at) / Fold change /veh CLDN22 /// WWC2 (11732394_at) / RFU HLA-DPB1 (11760878_x_at) / Fold change /veh HLA-DPB1 (11760878_x_at) / RFU SPINT1 (11716480_a_at) / Fold change /veh SPINT1 (11716480_a_at) / RFU GAP43 (11754022_s_at) / Fold change /veh GAP43 (11754022_s_at) / RFU A4GNT (11735810_at) / Fold change /veh A4GNT (11735810_at) / RFU PRB3 (11715151_x_at) / Fold change /veh PRB3 (11715151_x_at) / RFU TUBB4B (11761932_at) / Fold change /veh TUBB4B (11761932_at) / RFU CAPN14 (11732068_a_at) / Fold change /veh CAPN14 (11732068_a_at) / RFU TMCC2 (11721928_a_at) / Fold change /veh TMCC2 (11721928_a_at) / RFU IRGQ (11745062_a_at) / Fold change /veh IRGQ (11745062_a_at) / RFU FAM174B (11720279_a_at) / Fold change /veh FAM174B (11720279_a_at) / RFU TMPRSS4 (11748680_a_at) / Fold change /veh TMPRSS4 (11748680_a_at) / RFU FAM212B (11763350_a_at) / Fold change /veh FAM212B (11763350_a_at) / RFU PLEKHG5 (11743358_a_at) / Fold change /veh PLEKHG5 (11743358_a_at) / RFU ZSCAN30 (11745921_a_at) / Fold change /veh ZSCAN30 (11745921_a_at) / RFU CMKLR1 (11741424_a_at) / Fold change /veh CMKLR1 (11741424_a_at) / RFU LOC101060620 /// MAPK8IP1 (11723275_at) / Fold change /veh LOC101060620 /// MAPK8IP1 (11723275_at) / RFU SPTSSB (11747773_x_at) / Fold change /veh SPTSSB (11747773_x_at) / RFU PRSS12 (11739890_at) / Fold change /veh PRSS12 (11739890_at) / RFU BIN1 (11741810_x_at) / Fold change /veh BIN1 (11741810_x_at) / RFU WNT11 (11732464_a_at) / Fold change /veh WNT11 (11732464_a_at) / RFU C10orf10 (11716521_a_at) / Fold change /veh C10orf10 (11716521_a_at) / RFU C5orf56 (11738089_at) / Fold change /veh C5orf56 (11738089_at) / RFU CYB561 (11721691_x_at) / Fold change /veh CYB561 (11721691_x_at) / RFU ANKRD19P (11752326_a_at) / Fold change /veh ANKRD19P (11752326_a_at) / RFU OR2T12 /// OR2T33 /// OR2T8 (11738714_s_at) / Fold change /veh OR2T12 /// OR2T33 /// OR2T8 (11738714_s_at) / RFU VCAN (11748164_a_at) / Fold change /veh VCAN (11748164_a_at) / RFU JSRP1 (11732532_at) / Fold change /veh JSRP1 (11732532_at) / RFU KRTAP10-11 (11738290_x_at) / Fold change /veh KRTAP10-11 (11738290_x_at) / RFU MYO3A (11730013_a_at) / Fold change /veh MYO3A (11730013_a_at) / RFU EBF3 (11725865_a_at) / Fold change /veh EBF3 (11725865_a_at) / RFU CAMK2N1 (11719241_x_at) / Fold change /veh CAMK2N1 (11719241_x_at) / RFU C5orf56 (11738088_a_at) / Fold change /veh C5orf56 (11738088_a_at) / RFU OLFML3 (11715873_a_at) / Fold change /veh OLFML3 (11715873_a_at) / RFU LOC100653217 /// NTM (11731650_a_at) / Fold change /veh LOC100653217 /// NTM (11731650_a_at) / RFU MAPK11 (11762145_a_at) / Fold change /veh MAPK11 (11762145_a_at) / RFU FIZ1 (11724087_x_at) / Fold change /veh FIZ1 (11724087_x_at) / RFU OASL (11726364_x_at) / Fold change /veh OASL (11726364_x_at) / RFU SOX15 (11748057_x_at) / Fold change /veh SOX15 (11748057_x_at) / RFU CD79A (11719716_a_at) / Fold change /veh CD79A (11719716_a_at) / RFU HIST1H1D (11736915_at) / Fold change /veh HIST1H1D (11736915_at) / RFU CASKIN2 (11723855_a_at) / Fold change /veh CASKIN2 (11723855_a_at) / RFU LOC730098 (11760151_x_at) / Fold change /veh LOC730098 (11760151_x_at) / RFU OR4N2 (11742367_at) / Fold change /veh OR4N2 (11742367_at) / RFU PRRT2 (11749266_a_at) / Fold change /veh PRRT2 (11749266_a_at) / RFU SNX32 (11753110_a_at) / Fold change /veh SNX32 (11753110_a_at) / RFU CDHR5 (11726645_a_at) / Fold change /veh CDHR5 (11726645_a_at) / RFU RCAN1 (11760418_a_at) / Fold change /veh RCAN1 (11760418_a_at) / RFU FAM167A (11723789_a_at) / Fold change /veh FAM167A (11723789_a_at) / RFU FAM26E (11764081_at) / Fold change /veh FAM26E (11764081_at) / RFU ISYNA1 (11749810_s_at) / Fold change /veh ISYNA1 (11749810_s_at) / RFU ACY1 (11761880_at) / Fold change /veh ACY1 (11761880_at) / RFU 11764098_at / Fold change /veh 11764098_at / RFU SAMD14 (11745864_x_at) / Fold change /veh SAMD14 (11745864_x_at) / RFU NPB (11741838_a_at) / Fold change /veh NPB (11741838_a_at) / RFU TMPRSS6 (11731388_a_at) / Fold change /veh TMPRSS6 (11731388_a_at) / RFU KRTAP10-2 (11738614_at) / Fold change /veh KRTAP10-2 (11738614_at) / RFU ARHGAP8 /// PRR5-ARHGAP8 (11727945_x_at) / Fold change /veh ARHGAP8 /// PRR5-ARHGAP8 (11727945_x_at) / RFU KRTAP5-7 /// NADSYN1 (11734609_at) / Fold change /veh KRTAP5-7 /// NADSYN1 (11734609_at) / RFU RASL12 (11751679_a_at) / Fold change /veh RASL12 (11751679_a_at) / RFU CDKN2B (11736163_a_at) / Fold change /veh CDKN2B (11736163_a_at) / RFU PRF1 (11729649_at) / Fold change /veh PRF1 (11729649_at) / RFU, ZNF638 /// ZNF638-IT1 / Fold change vs veh, ZNF638 /// ZNF638-IT1 / RFU, PANK3 / Fold change vs veh, PANK3 / RFU, SH3YL1 / Fold change vs veh, SH3YL1 / RFU, ZEB2 / Fold change vs veh, ZEB2 / RFU, NRIP1 / Fold change vs veh, NRIP1 / RFU, PTTG1IP / Fold change vs veh, PTTG1IP / RFU, CAPN2 / Fold change vs veh, CAPN2 / RFU, MED14 / Fold change vs veh, MED14 / RFU, SNORA58 / Fold change vs veh, SNORA58 / RFU, C1orf63 / Fold change vs veh, C1orf63 / RFU, LRRFIP1 / Fold change vs veh, LRRFIP1 / RFU, NDUFAF7 / Fold change vs veh, NDUFAF7 / RFU, SLC12A2 / Fold change vs veh, SLC12A2 / RFU, IBTK / Fold change vs veh, IBTK / RFU, ESF1 / Fold change vs veh, ESF1 / Fold change vs veh, TMEM50B / RFU, TAOK1 / Fold change vs veh, TAOK1 / RFU, ACBD3 / Fold change vs veh, ACBD3 / RFU, TMA16 / Fold change vs veh, TMA16 / RFU, RWDD3 / Fold change vs veh, RWDD3 / RFU, BCAT1 / Fold change vs veh, BCAT1 / RFU, EDEM3 / Fold change vs veh, EDEM3 / RFU, TMEM33 / Fold change vs veh, TMEM33 / RFU, WDR75 / Fold change vs veh, WDR75 / RFU, AHCTF1 / Fold change vs veh, AHCTF1 / RFU, TFRC / Fold change vs veh, TFRC / RFU, ZDHHC17 / Fold change vs veh, ZDHHC17 / RFU, NOM1 / Fold change vs veh, NOM1 / RFU, ARL8B / Fold change vs veh, ARL8B / RFU, ZBTB11 / Fold change vs veh, ZBTB11 / RFU, TAMM41 / Fold change vs veh, TAMM41 / RFU, KIAA1704 /// LOC100996395 / Fold change vs veh, KIAA1704 /// LOC100996395 / RFU, ING1 / Fold change vs veh, ING1 / RFU, TRMT61B / Fold change vs veh, TRMT61B / RFU, FUBP3 / Fold change vs veh, FUBP3 / RFU, TP53 / Fold change vs veh, TP53 / RFU, TNKS2 / Fold change vs veh, TNKS2 / RFU, ZFP14 / Fold change vs veh, ZFP14 / RFU, ACTR2 / Fold change vs veh, ACTR2 / RFU, PPP3R1 / Fold change vs veh, PPP3R1 / RFU, PIK3R1 / Fold change vs veh, PIK3R1 / RFU, HNRNPA1 / Fold change vs veh, HNRNPA1 / RFU, RNF170 / Fold change vs veh, RNF170 / RFU, ZNF28 / Fold change vs veh, ZNF28 / RFU, RNGTT / Fold change vs veh, RNGTT / RFU, OGT / Fold change vs veh, OGT / RFU, BRD1 / Fold change vs veh, BRD1 / RFU, MARS / Fold change vs veh, MARS / RFU, ZNF655 / Fold change vs veh, ZNF655 / RFU, FAHD1 / Fold change vs veh, FAHD1 / RFU, BDP1 / Fold change vs veh, BDP1 / RFU, LRRCC1 / Fold change vs veh, LRRCC1 / RFU, ARID1A / Fold change vs veh, ARID1A / RFU, ZNF146 / Fold change vs veh, ZNF146 / RFU, ZNF330 / Fold change vs veh, ZNF330 / RFU, GPN3 / Fold change vs veh, GPN3 / RFU, C9orf123 / Fold change vs veh, C9orf123 / RFU, N4BP2L2 / Fold change vs veh, N4BP2L2 / RFU, ARFIP1 / Fold change vs veh, ARFIP1 / RFU, FAM179B / Fold change vs veh, FAM179B / RFU, BCL10 / Fold change vs veh, BCL10 / RFU, UHRF1BP1L / Fold change vs veh, UHRF1BP1L / RFU, BET1 / Fold change vs veh, BET1 / RFU, CNOT2 / Fold change vs veh, CNOT2 / RFU, ZNF268 / Fold change vs veh, ZNF268 / Fold change vs veh, ZNF507 / RFU, DGCR2 / Fold change vs veh, DGCR2 / RFU, WDSUB1 / Fold change vs veh, WDSUB1 / Fold change vs veh, HSP90B1 /// MIR3652 / RFU, ADSS / Fold change vs veh, ADSS / RFU, GK / Fold change vs veh, GK / RFU, ZNF148 / Fold change vs veh, ZNF148 / RFU, TAF9 / Fold change vs veh, TAF9 / RFU, SLC1A5 / Fold change vs veh, SLC1A5 / RFU, SLMO2 / Fold change vs veh, SLMO2 / RFU, ABCC4 / Fold change vs veh, ABCC4 / RFU, LOC101060439 /// RAP1B / Fold change vs veh, LOC101060439 /// RAP1B / RFU, RFX7 / Fold change vs veh, RFX7 / RFU, GTPBP10 / Fold change vs veh, GTPBP10 / RFU, CNEP1R1 / Fold change vs veh, CNEP1R1 / RFU, BIVM-ERCC5 /// ERCC5 / Fold change vs veh, BIVM-ERCC5 /// ERCC5 / RFU, ILF3 / Fold change vs veh, ILF3 / RFU 11762660_at / Fold change /veh 11762660_at / RFU VCAN (11757783_s_at) / Fold change /veh VCAN (11757783_s_at) / RFU DDX43 (11728927_at) / Fold change /veh DDX43 (11728927_at) / RFU KRT8 (11758188_x_at) / Fold change /veh KRT8 (11758188_x_at) / RFU NKD1 (11759106_at) / Fold change /veh NKD1 (11759106_at) / RFU SRD5A1 (11742802_a_at) / Fold change /veh SRD5A1 (11742802_a_at) / RFU TPSAB1 /// TPSB2 (11721975_s_at) / Fold change /veh TPSAB1 /// TPSB2 (11721975_s_at) / RFU GSTM3 (11746129_a_at) / Fold change /veh GSTM3 (11746129_a_at) / RFU IL23R (11737362_x_at) / Fold change /veh IL23R (11737362_x_at) / RFU TMEM51 (11727254_a_at) / Fold change /veh TMEM51 (11727254_a_at) / RFU PIWIL2 (11732686_x_at) / Fold change /veh PIWIL2 (11732686_x_at) / RFU ORM1 (11744905_x_at) / Fold change /veh ORM1 (11744905_x_at) / RFU CCDC152 (11743942_at) / Fold change /veh CCDC152 (11743942_at) / RFU ECM1 (11717891_a_at) / Fold change /veh ECM1 (11717891_a_at) / RFU IL23R (11748794_a_at) / Fold change /veh IL23R (11748794_a_at) / RFU TNFAIP8L3 (11732012_x_at) / Fold change /veh TNFAIP8L3 (11732012_x_at) / RFU MBOAT4 (11741988_at) / Fold change /veh MBOAT4 (11741988_at) / RFU 11764193_at / Fold change /veh 11764193_at / RFU TMEM53 (11763286_at) / Fold change /veh TMEM53 (11763286_at) / RFU MAGEB2 (11727129_at) / Fold change /veh MAGEB2 (11727129_at) / RFU TMEM200A (11744735_a_at) / Fold change /veh TMEM200A (11744735_a_at) / RFU CCDC152 (11751479_a_at) / Fold change /veh CCDC152 (11751479_a_at) / RFU FAM211A (11726209_a_at) / Fold change /veh FAM211A (11726209_a_at) / RFU RGS16 (11746705_a_at) / Fold change /veh RGS16 (11746705_a_at) / RFU VCAN (11755009_s_at) / Fold change /veh VCAN (11755009_s_at) / RFU RHOB (11743442_s_at) / Fold change /veh RHOB (11743442_s_at) / RFU RGS16 (11720943_a_at) / Fold change /veh RGS16 (11720943_a_at) / RFU RGS16 (11720944_at) / Fold change /veh RGS16 (11720944_at) / RFU, VPS4B / Fold change vs veh, VPS4B / RFU, CREB1 / Fold change vs veh, CREB1 / RFU, DNAJC13 / Fold change vs veh, DNAJC13 / RFU, GNAQ / Fold change vs veh, GNAQ / RFU, CDK5R1 / Fold change vs veh, CDK5R1 / RFU, ZRANB3 / Fold change vs veh, ZRANB3 / RFU, CUL4A / Fold change vs veh, CUL4A / RFU, CCNY / Fold change vs veh, CCNY / RFU, UFL1 / Fold change vs veh, UFL1 / RFU, COG3 / Fold change vs veh, COG3 / RFU, DIAPH2 / Fold change vs veh, DIAPH2 / RFU, SKA2 / Fold change vs veh, SKA2 / RFU, AFF3 / Fold change vs veh, AFF3 / RFU, LMF1 / Fold change vs veh, LMF1 / RFU, IPO11 / Fold change vs veh, IPO11 / RFU, DFFB / Fold change vs veh, DFFB / RFU, FOXP1 / Fold change vs veh, FOXP1 / RFU, CARD8 / Fold change vs veh, CARD8 / RFU, STRN3 / Fold change vs veh, STRN3 / RFU, ADK / Fold change vs veh, ADK / RFU, RASSF2 / Fold change vs veh, RASSF2 / RFU, WIPF1 / Fold change vs veh, WIPF1 / RFU, LARP1B / Fold change vs veh, LARP1B / RFU, RASA1 / Fold change vs veh, RASA1 / RFU, RB1 / Fold change vs veh, RB1 / RFU, PPFIA1 / Fold change vs veh, PPFIA1 / RFU, MAT2A / Fold change vs veh, MAT2A / RFU, CCT5 / Fold change vs veh, CCT5 / RFU, WDR92 / Fold change vs veh, WDR92 / RFU, CUX1 / Fold change vs veh, CUX1 / RFU, TTC7A / Fold change vs veh, TTC7A / RFU, TMEM135 / Fold change vs veh, TMEM135 / RFU, DEPTOR / Fold change vs veh, DEPTOR / RFU, CPM / Fold change vs veh, CPM / RFU, DNAJB6 / Fold change vs veh, DNAJB6 / RFU, CACNA2D3 / Fold change vs veh, CACNA2D3 / RFU, DTX4 / Fold change vs veh, DTX4 / RFU, TFCP2 / Fold change vs veh, TFCP2 / RFU, GMCL1 /// GMCL1P1 / Fold change vs veh, GMCL1 /// GMCL1P1 / RFU, AEBP2 / Fold change vs veh, AEBP2 / RFU, SNHG1 /// SNORD22 /// SNORD25 /// SNORD26 /// SNORD27 /// SNORD28 /// SNORD29 /// SNORD31 / Fold change vs veh, SNHG1 /// SNORD22 /// SNORD25 /// SNORD26 /// SNORD27 /// SNORD28 /// SNORD29 /// SNORD31 / Fold change (Aza/veh), C12orf56 (ProbeSet 11735607_a_at) / Fold change (ACY-1035/veh), C12orf56 (ProbeSet 11735607_a_at) / Fold change (Aza/veh), FGFR1OP (ProbeSet 11751329_s_at) / Fold change (ACY-1035/veh), FGFR1OP (ProbeSet 11751329_s_at) / Fold change (Aza/veh), VPS36 (ProbeSet 11739960_a_at) / Fold change (ACY-1035/veh), VPS36 (ProbeSet 11739960_a_at) / RFU SYPL1 (11715823_x_at) / Fold change /veh SYPL1 (11715823_x_at) / RFU IGFBP7 (11715501_s_at) / Fold change /veh IGFBP7 (11715501_s_at) / RFU REEP3 (11722064_at) / Fold change /veh REEP3 (11722064_at) / RFU IGLL1 (11728026_x_at) / Fold change /veh IGLL1 (11728026_x_at): dose or concentration left out as unconfirmed.

Consider `Nc1ncn([C@@H]2O[C@H](CO)[C@@H](O)[C@H]2O)c(=O)n1` [azacitidine], for which the “RFU, BRD1” value came to 186.03 RFU.
